Results: DBAASP
Values after ≈ are worked out from the molar mass of the structure shown.

Columns and labels:
Assay in all cases: ≥ marks a high value that may be exact or a test limit, other limits are often not marked, values filed in µg/mL are converted to µM
[1] = test system: Pseudomonas aeruginosa PAO1
[2] = test system: Streptococcus pyogenes M1T1 5448
Escherichia coli BL21 = test system: Escherichia coli BL21
[3] = test system: Staphylococcus aureus NCTC 10788
[4] = test system: Pseudomonas aeruginosa ATCC 27853
[5] = test system: Escherichia coli NCTC 10418
[6] = test system: Candida albicans NCYC 1467
[7] = test system: Staphylococcus aureus NCTC 12493
[8] = test system: Staphylococcus aureus ATCC 43300

MIC [1] [µM] | MIC [2] [µM] | MIC (Escherichia coli BL21) [µM] | MIC [3] [µM] | MIC [4] [µM] | MIC [5] [µM] | MIC [6] [µM] | MIC [7] [µM] | MIC [8] [µM] | SMILES
> 128 | 0.25 (≈ 0.766 µg/mL) | 16 (≈ 49 µg/mL) | – | – | – | – | – | – | CC[C@H](C)[C@H](NC(=O)[C@H](CCCN=C(N)N)NC(=O)[C@H](C)NC(=O)[C@H](CCCCN)NC(=O)[C@H](CCCCN)NC(=O)CNC(=O)[C@H](Cc1ccccc1)NC(=O)[C@H](CCCCN)NC(=O)[C@H](CCCN=C(N)N)NC(=O)[C@H](CC(C)C)NC(=O)[C@H](CCC(=O)O)NC(=O)[C@H](CCC(=O)O)NC(=O)[C@H](CCCCN)NC(=O)[C@H](CC(C)C)NC(=O)[C@H](Cc1ccc(O)cc1)NC(=O)[C@H](CC(C)C)NC(=O)[C@@H](NC(=O)[C@H](CC(C)C)NC(=O)[C@H](C)NC(=O)[C@H](CCC(N)=O)NC(=O)[C@H](CCCN=C(N)N)NC(=O)CNC(=O)[C@@H](N)Cc1c[nH]c2ccccc12)[C@@H](C)O)C(=O)N[C@@H](C)C(=O)N[C@@H](Cc1c[nH]c2ccccc12)C(=O)O [WGRQALTLYLKEELRKFGKKARIAW]
– | – | – | ≥ 237 | > 237 | ≥ 237 | ≥ 237 | – | – | CC(C)C[C@H](NC(=O)[C@H](CCCN=C(N)N)NC(=O)[C@H](CC(N)=O)NC(=O)[C@H](CC(C)C)NC(=O)[C@@H](N)CCCCN)C(=O)N[C@@H](CCCCN)C(=O)N[C@@H](CCC(=O)O)C(=O)N[C@@H](CCCCN)C(=O)N[C@@H](CC(N)=O)C(=O)N[C@@H](CCCCN)C(=O)N[C@@H](C)C(=O)N[C@@H](CCCCN)C(=O)N[C@@H](CC(N)=O)C(=O)N[C@@H](CO)C(=O)N[C@@H](CCCCN)C(=O)N[C@@H](CCC(=O)O)C(=O)N[C@@H](CC(N)=O)C(=O)N[C@@H](CC(N)=O)C(=O)O [KLNRLKEKNKAKNSKENN]
128 (≈ 385 µg/mL) | 4 (≈ 12 µg/mL) | 16 (≈ 48.1 µg/mL) | – | – | – | – | – | – | CC[C@H](C)[C@H](NC(=O)[C@H](Cc1ccccc1)NC(=O)[C@H](C)NC(=O)[C@H](CCCCN)NC(=O)[C@H](CCCCN)NC(=O)CNC(=O)[C@H](CCCN=C(N)N)NC(=O)[C@H](CCCCN)NC(=O)[C@H](CCCN=C(N)N)NC(=O)[C@H](CC(C)C)NC(=O)[C@H](Cc1ccc(O)cc1)NC(=O)[C@H](CCC(=O)O)NC(=O)[C@H](CCCCN)NC(=O)[C@H](CC(C)C)NC(=O)[C@H](CCC(=O)O)NC(=O)[C@H](CC(C)C)NC(=O)[C@@H](NC(=O)[C@H](CC(C)C)NC(=O)[C@H](CCCCN)NC(=O)[C@H](CCC(N)=O)NC(=O)[C@H](CCCN=C(N)N)NC(=O)CNC(=O)[C@H](C)N)[C@@H](C)O)C(=O)N[C@@H](C)C(=O)N[C@@H](Cc1c[nH]c2ccccc12)C(=O)O [AGRQKLTLELKEYLRKRGKKAFIAW]
– | – | – | 2.71 (≈ 8 µg/mL) | 5.42 (≈ 16 µg/mL) | 2.71 (≈ 8 µg/mL) | 5.42 (≈ 16 µg/mL) | 5.42 (≈ 16 µg/mL) | 2.71 (≈ 8 µg/mL) | CSCC[C@H](NC(=O)[C@H](CC(=O)O)NC(=O)[C@@H](NC(=O)[C@@H](NC(=O)[C@H](C)NC(=O)[C@H](CC(N)=O)NC(=O)[C@H](CC(C)C)NC(=O)[C@@H](NC(=O)[C@H](C)NC(=O)[C@H](CCCCN)NC(=O)CNC(=O)[C@H](C)NC(=O)[C@H](C)NC(=O)[C@H](CCCCN)NC(=O)CNC(=O)[C@@H](NC(=O)[C@H](CC(N)=O)NC(=O)[C@H](CCCCN)NC(=O)[C@H](CC(C)C)NC(=O)[C@H](CC(C)C)NC(=O)[C@@H](NC(=O)[C@H](CCCCN)NC(=O)[C@H](Cc1c[nH]c2ccccc12)NC(=O)[C@H](CC(C)C)NC(=O)[C@H](C)N)[C@@H](C)O)C(C)C)C(C)C)C(C)C)[C@@H](C)O)C(=O)N[C@H](C(=O)N[C@@H](CC(N)=O)C(=O)N[C@@H](CCC(N)=O)C(N)=O)C(C)C [ALWKTLLKNVGKAAGKAVLNAVTDMVNQ]
